Measurements: ChEMBL document CHEMBL3286373, “Toward the Development of Bivalent Ligand Probes of Cannabinoid CB1 and Orexin OX1 Receptor Heterodimers” (ACS Med Chem Lett, 2014)

What was measured:
[1] = target: T1, Cannabinoid CB1 receptor/orexin receptor 1 complex (Homo sapiens) (UniProt P21554+O43613); conditions: RD-HGA16
[2] = target: Cannabinoid receptor 1 (Homo sapiens) (UniProt P21554); conditions: RD-HGA16
[3] = target: T1, Cannabinoid CB1 receptor/orexin receptor 1 complex (Homo sapiens); conditions: RD-HGA16; remark: listed apart in the source
[4] = target: T2, Orexin/Hypocretin receptor type 1 (Homo sapiens) (UniProt O43613); assay: Antagonist activity at OX1 receptor (unknown origin) expressed in RD-HGA16 cells assessed as inhibition of orexin A-induced calcium mobilization by fluorometric imaging plate reader analysis; assay type: functional, cell-based
T2 sequence (whole entry): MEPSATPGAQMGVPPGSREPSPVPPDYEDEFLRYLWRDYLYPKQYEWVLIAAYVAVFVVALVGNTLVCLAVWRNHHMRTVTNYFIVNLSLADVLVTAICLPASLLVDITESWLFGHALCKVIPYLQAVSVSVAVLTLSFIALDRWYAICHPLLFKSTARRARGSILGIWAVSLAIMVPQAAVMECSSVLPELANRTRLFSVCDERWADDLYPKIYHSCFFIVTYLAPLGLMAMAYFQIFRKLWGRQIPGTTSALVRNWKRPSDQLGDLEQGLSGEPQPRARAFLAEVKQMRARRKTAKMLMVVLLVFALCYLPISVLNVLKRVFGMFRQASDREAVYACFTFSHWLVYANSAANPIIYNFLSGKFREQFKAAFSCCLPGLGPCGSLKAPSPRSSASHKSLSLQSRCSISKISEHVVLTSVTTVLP

Sequence of Cannabinoid receptor 1 (Homo sapiens) (P21554 whole entry): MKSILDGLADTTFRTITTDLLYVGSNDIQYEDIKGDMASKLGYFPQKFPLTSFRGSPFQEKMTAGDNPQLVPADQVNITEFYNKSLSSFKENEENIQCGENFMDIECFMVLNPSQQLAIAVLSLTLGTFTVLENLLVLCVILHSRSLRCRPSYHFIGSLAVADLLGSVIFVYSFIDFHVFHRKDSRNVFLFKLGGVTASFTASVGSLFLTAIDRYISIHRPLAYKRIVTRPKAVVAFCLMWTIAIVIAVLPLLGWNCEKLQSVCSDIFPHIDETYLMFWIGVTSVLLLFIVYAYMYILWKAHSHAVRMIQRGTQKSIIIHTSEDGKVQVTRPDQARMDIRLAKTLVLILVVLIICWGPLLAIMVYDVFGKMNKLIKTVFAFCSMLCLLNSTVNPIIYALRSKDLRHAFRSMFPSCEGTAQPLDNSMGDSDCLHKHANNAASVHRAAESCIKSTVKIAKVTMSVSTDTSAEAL

| Ke [1] [µM] | Ke [2] [nM] | Ke [3] [nM] | Ke [4] [nM] | Structure (SMILES) |
| --- | --- | --- | --- | --- |
| > 10 | 2100 | 1200 | 8800 | COc1ccc(CC2c3cc(OC(=O)CCCCCCN(C)CCCCCCCNC(=O)c4nn(-c5ccc(Cl)cc5Cl)c(-c5ccc(Cl)cc5)c4C)c(OC)cc3CCN2CC(=O)NCc2ccccc2)cc1OC (centres undefined) |
| > 10 | 3000 | 230 | 5500 | COc1ccc(CC2c3cc(OC)c(OC)cc3CCN2C(C(=O)NCCCCCCCN(C)CCCCCCCNC(=O)c2nn(-c3ccc(Cl)cc3Cl)c(-c3ccc(Cl)cc3)c2C)c2ccccc2)cc1OC (centres undefined) |
| 5.9 | 1800 | 110 | > 10000 | COc1cc2c(cc1OC)C(Cc1ccc(OC(=O)CCCCCCN(C)CCCCCCCCCCNC(=O)c3nn(-c4ccc(Cl)cc4Cl)c(-c4ccc(Cl)cc4)c3C)c(OC)c1)N(CC(=O)NCc1ccccc1)CC2 (centres undefined) |
| > 10 | 8000 | 580 | 8600 | COc1ccc(CC2c3cc(OCCCCCCC(=O)NCCOCCOCCOCCNC(=O)c4nn(-c5ccc(Cl)cc5Cl)c(-c5ccc(Cl)cc5)c4C)c(OC)cc3CCN2CC(=O)NCc2ccccc2)cc1OC (centres undefined) |
| 4.5 | 1800 | 420 | 3500 | COc1ccc(CC2c3cc(OC(=O)CCCCCCN(C)CCCCOCCCCOCCCCOCCNC(=O)c4nn(-c5ccc(Cl)cc5Cl)c(-c5ccc(Cl)cc5)c4C)c(OC)cc3CCN2CC(=O)NCc2ccccc2)cc1OC (centres undefined) |
| > 10 | 1100 | 410 | > 10000 | COc1cc2c(cc1OC)C(Cc1ccc(OC(=O)CCCCCCN(C)CCCCCCCCCCCCNC(=O)c3nn(-c4ccc(Cl)cc4Cl)c(-c4ccc(Cl)cc4)c3C)c(OC)c1)N(CC(=O)NCc1ccccc1)CC2 (centres undefined) |
| > 10 | 1800 | 610 | 8460 | COc1cc2c(cc1OC)C(Cc1ccc(OC(=O)CCCCCCN(C)CCCCCCCNC(=O)c3nn(-c4ccc(Cl)cc4Cl)c(-c4ccc(Cl)cc4)c3C)c(OC)c1)N(CC(=O)NCc1ccccc1)CC2 (centres undefined) |
| – | – | – | 78 | CCCC(=O)Oc1cc2c(cc1OC)CCN(CC(=O)NCc1ccccc1)C2Cc1ccc(OC)c(OC)c1 (centres undefined) |
| – | – | – | 310 | CCCCCCOc1cc2c(cc1OC)CCN(CC(=O)NCc1ccccc1)C2Cc1ccc(OC)c(OC)c1 (centres undefined) |

The remaining lines, values behind:

| Structure (SMILES) | Ke [1] [µM] | Ke [2] [nM] | Ke [3] [nM] | Ke [4] [nM] |
| --- | --- | --- | --- | --- |
| Cc1nc2ccc(NC(=O)Nc3ccnc4cccnc34)cc2o1 | 0.032 | > 10000 | > 10000 | 45 |
| COc1ccc(CC2c3cc(OC)c(OC)cc3CCN2CC(=O)NCc2ccccc2)cc1OC (centres undefined) | – | – | – | 200 |
| CCCC(=O)Oc1ccc(CC2c3cc(OC)c(OC)cc3CCN2CC(=O)NCc2ccccc2)cc1OC (centres undefined) | – | – | – | 43 |
| CCCCCCCNC(=O)CN1CCc2cc(OC)c(OC)cc2C1Cc1ccc(OC)c(OC)c1 (centres undefined) | – | – | – | 590 |
| CCCCCCCNC(=O)[C@@H](c1ccccc1)N1CCc2cc(OC)c(OC)cc2C1Cc1ccc(OC)c(OC)c1 (some centres undefined) | – | – | – | 22 |
| CCCCCCOc1ccc(CC2c3cc(OC)c(OC)cc3CCN2CC(=O)NCc2ccccc2)cc1OC (centres undefined) | – | – | – | 120 |
